What all share (assay type): in vivo
The subject of test [1] is Solanum nigrum (SOLNI). The experiment in a line: Example B post-emergence herbicidal activity, glasshouse pot test. To be noted: 312 h, evaluated after 13 days, read-out: Post-emergence activity SOLNI (100=total damage to plant; 0=no damage to plant); for pest or weed control at 1000 g/ha: rate 1000 g/ha; for pest or weed control at 250 g/ha: rate 250 g/ha. The essentials:
(§1)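 Pots, standard soil; spray at day 1 (pre) or day 8 (post); a.i. formulated in acetone/water 50:50 + 0.5% Tween 20; 24/16 °C, 14 h light, 65% RH, watered twice daily; visual rating at 13 d (0 = no damage, 100 = total damage).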

For test [2], the system named is Setaria faberi (SETFA). The description is as above. To be noted: 312 h, evaluated after 13 days, read-out: Post-emergence activity SETFA (100=total damage to plant; 0=no damage to plant); for pest or weed control at 1000 g/ha: rate 1000 g/ha; for pest or weed control at 250 g/ha: rate 250 g/ha. The essentials: as §1
For test [3], the system named is Alopecurus myosuroides (ALOMY). The description is as above. Particulars: 312 h, evaluated after 13 days, read-out: Post-emergence activity ALOMY (100=total damage to plant; 0=no damage to plant); for pest or weed control at 1000 g/ha: rate 1000 g/ha; for pest or weed control at 250 g/ha: rate 250 g/ha. The essentials: as §1
The test system of test [4] is Echinochloa crus-galli (ECHCG). The test is described as above. Particulars: 312 h, evaluated after 13 days, read-out: Post-emergence activity ECHCG (100=total damage to plant; 0=no damage to plant); for pest or weed control at 1000 g/ha: rate 1000 g/ha; for pest or weed control at 250 g/ha: rate 250 g/ha. The essentials:
as §1

Test [5] deals with Amaranthus retroflexus (AMARE). The description is as above. To be noted: 312 h, evaluated after 13 days, read-out: Post-emergence activity AMARE (100=total damage to plant; 0=no damage to plant); for pest or weed control at 1000 g/ha: rate 1000 g/ha; for pest or weed control at 250 g/ha: rate 250 g/ha. The essentials:
as §1

Test [6] concerns Avena fatua (AVEFA). The description is as above. Particulars: 312 h, evaluated after 13 days, read-out: Post-emergence activity AVEFA (100=total damage to plant; 0=no damage to plant); for pest or weed control at 1000 g/ha: rate 1000 g/ha; for pest or weed control at 250 g/ha: rate 250 g/ha. The essentials: as §1
For test [7], the system named is Solanum nigrum (SOLNI). The experiment in a line: Example B pre-emergence herbicidal activity, glasshouse pot test. Particulars: 312 h, evaluated after 13 days, read-out: Pre-emergence activity SOLNI (100=total damage to plant; 0=no damage to plant); for pest or weed control at 1000 g/ha: rate 1000 g/ha; for pest or weed control at 250 g/ha: rate 250 g/ha. The essentials: as §1

Test [8] concerns Setaria faberi (SETFA). Described as above. Particulars: 312 h, evaluated after 13 days, read-out: Pre-emergence activity SETFA (100=total damage to plant; 0=no damage to plant); for pest or weed control at 1000 g/ha: rate 1000 g/ha; for pest or weed control at 250 g/ha: rate 250 g/ha. The essentials:
as §1

The test system of test [9] is Alopecurus myosuroides (ALOMY). Described as above. Particulars: 312 h, evaluated after 13 days, read-out: Pre-emergence activity ALOMY (100=total damage to plant; 0=no damage to plant); for pest or weed control at 1000 g/ha: rate 1000 g/ha; for pest or weed control at 250 g/ha: rate 250 g/ha. The essentials: as §1
Test [10] deals with Echinochloa crus-galli (ECHCG). The description is as above. Particulars: 312 h, evaluated after 13 days, read-out: Pre-emergence activity ECHCG (100=total damage to plant; 0=no damage to plant); for pest or weed control at 1000 g/ha: rate 1000 g/ha; for pest or weed control at 250 g/ha: rate 250 g/ha. The essentials:
as §1

Test [11] has as its system Amaranthus retroflexus (AMARE). The test is described as above. Particulars: 312 h, evaluated after 13 days, read-out: Pre-emergence activity AMARE (100=total damage to plant; 0=no damage to plant); for pest or weed control at 1000 g/ha: rate 1000 g/ha; for pest or weed control at 250 g/ha: rate 250 g/ha. The essentials:
as §1

Test [12] relates to Avena fatua (AVEFA). Described as above. To be noted: 312 h, evaluated after 13 days, read-out: Pre-emergence activity AVEFA (100=total damage to plant; 0=no damage to plant); for pest or weed control at 1000 g/ha: rate 1000 g/ha; for pest or weed control at 250 g/ha: rate 250 g/ha. The essentials:
as §1

Drawing on US8680012B2, “4-phenyl-pyrane-3,5-diones,4-phenyl-thiopyrane-3,6-diones and cyclohexanetriones as novel herbicides” (Syngenta Crop Protection LLC, priority 2006, dated 2014), this text covers pest or weed control for nine molecules.

Turning to `Cc1ccc(-c2ccc(Cl)cc2)cc1C1=C(O)C2(CCOCC2)OCC1=O` (single isomer, unassigned) [Compound A-37], the pest or weed control at 1000 g/ha is 70% in the test on Solanum nigrum (SOLNI) [1]; 80% with Setaria faberi (SETFA) [2]; 70% in test [3]; 90% in test [4]; 0% in [5]; 30% in the test on Avena fatua (AVEFA) [6]. Besides, the pest or weed control at 1000 g/ha in the test on Solanum nigrum (SOLNI) [7] is 0%; in the test on Setaria faberi (SETFA) [8], 20%; in [9], 40%; in test [10] it was 30%; in [11] it was 0%; in the test with Avena fatua (AVEFA) [12], 20%.
`CCc1ccc(-c2ccc(Cl)cc2)cc1C1=C(O)C(C)(C)OC(C)C1=O` (single isomer, unassigned) [Compound A-26]: the pest or weed control at 1000 g/ha was 50% in the test on Solanum nigrum (SOLNI) [1]; 100% in the test with Setaria faberi (SETFA) [2]; 100% in [3]; 100% in [4]; 100% in [5]; 100% in the test with Avena fatua (AVEFA) [6]. For the same molecule, the pest or weed control at 1000 g/ha worked out at 0% in the test on Solanum nigrum (SOLNI) [7]; 100% in the test with Setaria faberi (SETFA) [8]; 80% in test [9]; 100% in test [10]; 0% in test [11]; 80% in the test with Avena fatua (AVEFA) [12].
Turning to `Cc1ccc(-c2cc(F)cc(F)c2)cc1C1=C(O)C(C)(C)OC(C)(C)C1=O` [Compound A-25], the pest or weed control at 1000 g/ha in the test on Solanum nigrum (SOLNI) [1] is 70%; in the test on Setaria faberi (SETFA) [2], 70%; in test [3] it was 70%; in test [4] it was 90%; in [5] it was 100%; in the test on Avena fatua (AVEFA) [6], 0%. Besides, the pest or weed control at 1000 g/ha amounted to 0% in the test with Solanum nigrum (SOLNI) [7]; 20% in the test with Setaria faberi (SETFA) [8]; 70% in [9]; 80% in [10]; 0% in test [11]; 30% with Avena fatua (AVEFA) [12].
`CCc1ccc(-c2ccc(Cl)c(C(F)(F)F)c2)cc1C1=C(O)C(C)(C)C(=O)C(C)(C)C1=O` [Compound B-10]: the pest or weed control at 250 g/ha in the test with Solanum nigrum (SOLNI) [1] came to 0%; with Setaria faberi (SETFA) [2], 80%; in [3] it was 40%; in [4], 90%; in test [5], 40%; in the test with Avena fatua (AVEFA) [6], 20%. Further, the pest or weed control at 250 g/ha amounted to 20% in the test with Solanum nigrum (SOLNI) [7]; 50% with Setaria faberi (SETFA) [8]; 0% in [9]; 30% in test [10]; 0% in test [11]; 0% with Avena fatua (AVEFA) [12].
For the molecule `Cc1ccc(-c2ccc(Cl)cc2)cc1C1=C(O)[C@@]2(C)CC[C@H](O2)C1=O` (single isomer, unassigned) [Compound A-30], the pest or weed control at 1000 g/ha in the test with Solanum nigrum (SOLNI) [1] stood at 70%; with Setaria faberi (SETFA) [2], 100%; in test [3], 90%; in test [4], 100%; in test [5], 70%; in the test on Avena fatua (AVEFA) [6], 100%. For the same molecule, the pest or weed control at 1000 g/ha in the test on Solanum nigrum (SOLNI) [7] was 0%; in the test with Setaria faberi (SETFA) [8], 100%; in test [9], 80%; in test [10], 100%; in [11], 0%; in the test on Avena fatua (AVEFA) [12] it was 70%.
In the case of `Cc1ccc(-c2ccc(C(C)(C)C)cc2)cc1C1=C(O)C(C)(C)OC(C)(C)C1=O` [Compound A-21], the pest or weed control at 1000 g/ha in the test with Solanum nigrum (SOLNI) [1] amounted to 20%; in the test with Setaria faberi (SETFA) [2] it was 60%; in test [3] it was 40%; in [4], 90%; in test [5], 20%; in the test with Avena fatua (AVEFA) [6], 60%. Moreover, the pest or weed control at 1000 g/ha in the test with Solanum nigrum (SOLNI) [7] came out at 50%; with Setaria faberi (SETFA) [8], 100%; in test [9] it was 100%; in [10], 90%; in test [11] it was 60%; with Avena fatua (AVEFA) [12], 50%.
In the case of `CCc1ccc(-c2ccc(Cl)nc2Cl)cc1C1=C(O)C(C)(C)C(=O)C(C)(C)C1=O` [Compound B-29], the pest or weed control at 250 g/ha in the test with Solanum nigrum (SOLNI) [1] was 30%; in the test with Setaria faberi (SETFA) [2], 80%; in test [3] it was 30%; in test [4], 100%; in test [5], 20%; with Avena fatua (AVEFA) [6], 0%. The pest or weed control at 250 g/ha is 0% in the test on Solanum nigrum (SOLNI) [7]; 30% with Setaria faberi (SETFA) [8]; 0% in [9]; 20% in test [10]; 0% in [11]; 0% with Avena fatua (AVEFA) [12].
With `CCc1ccc(-c2ccc(Cl)cc2)cc1C1=C(OC(=O)OC)C(C)(C)OC(C)(C)C1=O` [Compound D-16], the pest or weed control at 1000 g/ha in the test on Solanum nigrum (SOLNI) [1] was 0%; in the test on Setaria faberi (SETFA) [2], 100%; in [3] it was 90%; in test [4], 100%; in [5] it was 0%; in the test with Avena fatua (AVEFA) [6], 20%. Further, the pest or weed control at 1000 g/ha in the test with Solanum nigrum (SOLNI) [7] was determined as 0%; with Setaria faberi (SETFA) [8] it was 100%; in test [9], 50%; in [10], 90%; in [11], 0%; with Avena fatua (AVEFA) [12] it was 0%.
For the molecule `CCc1ccc(-c2ccc(Cl)cc2OC)cc1C1=C(O)C(C)(C)C(=O)C(C)(C)C1=O` [Compound B-25], the pest or weed control at 250 g/ha with Solanum nigrum (SOLNI) [1] amounted to 0%; in the test on Setaria faberi (SETFA) [2] it was 20%; in test [3], 20%; in test [4] it was 70%; in test [5] it was 0%; with Avena fatua (AVEFA) [6], 0%. Besides, the pest or weed control at 250 g/ha (in the test on Solanum nigrum (SOLNI) [7]; with Setaria faberi (SETFA) [8]; in test [9]; in test [10]; in test [11]; in the test on Avena fatua (AVEFA) [12]) was 0% each time.
